Common to all, as to format: cell-based
Assay [1] deals with T1, human Nav1.7 (Homo sapiens, UniProt Q15858).
T1 construct: expressed in transfected cells; host or cells: HEK293
Kind of assay: Nav 1.7 IWQ In Vitro Assay (IonWorks Quattro). As to conditions: HEK293 cells stably transfected with human Nav 1.7; IonWorks Quattro population patch-clamp; 26th pulse to −20 mV, 5 Hz; cells unclamped 5 to 8 minutes with compound; read-out: hNav1.7 IWQ IC50. In a few lines: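 Population patch clamp on HEK293 cells stably expressing human Nav 1.7: held at −110 mV for three seconds, then 26 pulses of 150 msec to −20 mV at 5 Hz, before and after 5-8 min with one compound concentration. Percent inhibition from peak current at the 26th pulse.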
Background: Patch clamp records ionic current or voltage across a cell membrane.

Assay [2] has as its target T1, human Nav1.7. Put plainly: Nav 1.7 In Vitro PatchXpress (PX) Assay. As to conditions: HEK 293 cells stably transfected with human Nav1.7; PatchXpress whole cell voltage clamp; partially inactivated state (holding potential yielding 20 to 50% inactivation); read-out: hNav1.7 PX IC50. The procedure, abridged: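 Percent inhibition of peak sodium current taken after 3 min exposure to one compound concentration, 3–5 cells each, with IC50 curve fits. Partially inactivated channels (20–50% inactivation at holding potential) in Nav1.7-HEK 293 cells, activated by 20 ms steps to −10 mV every 10 s.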

Assay [3] addresses T1, human Nav1.7. Kind of assay: Nav 1.7 IWB In Vitro Assay (IonWorks Barracuda). Particulars: HEK293 cells stably transfected with human Nav 1.7; IonWorks Barracuda population patch-clamp; cells clamped to −20 mV for 4 minutes with compound; 26th pulse; read-out: hNav1.7 IWB IC50. In a few lines: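 IC50 derived from concentration-response of percent block of the 26th-pulse peak inward current, compound vs none. Protocol: stable human Nav 1.7 HEK293 cells on automated population patch clamp, held at −110 mV, 5 Hz train of 150 ms steps to −20 mV, 4 min compound exposure depolarized at −20 mV, 3 s repolarization, train repeated.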

The values that follow come from US10472356B2, “Bicyclic ketone sulfonamide compounds” (AMGEN INC., priority 2015, dated 2019).

The IC50 is the concentration that inhibits the measured activity by half.

T1 sequence (Q15858 whole entry): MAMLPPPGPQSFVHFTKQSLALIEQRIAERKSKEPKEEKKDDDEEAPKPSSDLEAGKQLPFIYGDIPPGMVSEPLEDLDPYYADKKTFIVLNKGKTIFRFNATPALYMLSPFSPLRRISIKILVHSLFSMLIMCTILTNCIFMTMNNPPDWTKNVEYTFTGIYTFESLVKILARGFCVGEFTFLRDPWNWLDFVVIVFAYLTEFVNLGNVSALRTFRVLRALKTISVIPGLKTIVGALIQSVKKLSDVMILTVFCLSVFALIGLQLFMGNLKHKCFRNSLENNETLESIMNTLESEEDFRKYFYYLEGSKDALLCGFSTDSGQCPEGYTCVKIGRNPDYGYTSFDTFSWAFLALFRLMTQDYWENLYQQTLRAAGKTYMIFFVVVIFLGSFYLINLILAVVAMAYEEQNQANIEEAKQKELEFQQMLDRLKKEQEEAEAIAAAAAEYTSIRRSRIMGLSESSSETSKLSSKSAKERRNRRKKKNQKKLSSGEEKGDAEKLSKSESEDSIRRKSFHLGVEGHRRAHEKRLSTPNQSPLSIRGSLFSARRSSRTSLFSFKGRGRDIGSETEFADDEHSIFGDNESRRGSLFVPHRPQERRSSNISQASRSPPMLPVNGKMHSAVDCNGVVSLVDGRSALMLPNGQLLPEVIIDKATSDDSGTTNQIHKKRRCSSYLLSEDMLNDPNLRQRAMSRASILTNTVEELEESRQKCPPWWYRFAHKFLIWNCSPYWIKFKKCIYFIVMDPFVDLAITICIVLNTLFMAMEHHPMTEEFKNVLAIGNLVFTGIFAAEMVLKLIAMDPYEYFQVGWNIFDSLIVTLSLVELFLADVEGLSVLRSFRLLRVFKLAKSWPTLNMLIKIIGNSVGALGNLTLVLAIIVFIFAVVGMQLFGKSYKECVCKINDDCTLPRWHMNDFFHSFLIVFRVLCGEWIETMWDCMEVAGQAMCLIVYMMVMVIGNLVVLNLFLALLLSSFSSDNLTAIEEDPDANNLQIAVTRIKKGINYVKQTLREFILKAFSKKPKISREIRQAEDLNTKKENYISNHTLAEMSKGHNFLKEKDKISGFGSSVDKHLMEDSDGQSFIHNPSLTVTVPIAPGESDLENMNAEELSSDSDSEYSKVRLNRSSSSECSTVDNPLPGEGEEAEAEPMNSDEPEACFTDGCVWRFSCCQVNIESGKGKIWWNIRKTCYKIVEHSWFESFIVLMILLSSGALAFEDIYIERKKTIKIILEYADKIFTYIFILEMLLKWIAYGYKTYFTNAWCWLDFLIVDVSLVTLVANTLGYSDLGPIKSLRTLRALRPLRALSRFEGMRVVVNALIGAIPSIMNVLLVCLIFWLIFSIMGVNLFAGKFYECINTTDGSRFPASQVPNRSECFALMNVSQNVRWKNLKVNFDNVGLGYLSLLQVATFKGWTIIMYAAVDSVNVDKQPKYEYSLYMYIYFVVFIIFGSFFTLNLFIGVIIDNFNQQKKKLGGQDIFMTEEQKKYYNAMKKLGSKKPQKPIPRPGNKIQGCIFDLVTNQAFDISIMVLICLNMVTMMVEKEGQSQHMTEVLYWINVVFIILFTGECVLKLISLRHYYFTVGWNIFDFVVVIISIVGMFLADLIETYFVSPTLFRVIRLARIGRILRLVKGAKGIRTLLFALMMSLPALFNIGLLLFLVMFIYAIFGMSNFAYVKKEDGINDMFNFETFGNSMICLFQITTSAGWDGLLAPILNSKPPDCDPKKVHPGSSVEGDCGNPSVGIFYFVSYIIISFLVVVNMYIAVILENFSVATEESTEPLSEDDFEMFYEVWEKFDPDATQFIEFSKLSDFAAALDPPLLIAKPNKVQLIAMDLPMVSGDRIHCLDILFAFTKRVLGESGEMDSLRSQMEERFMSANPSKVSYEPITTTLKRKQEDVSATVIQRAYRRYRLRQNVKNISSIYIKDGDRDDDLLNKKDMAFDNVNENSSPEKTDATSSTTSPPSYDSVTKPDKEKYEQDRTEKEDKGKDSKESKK

For `COc1cc(-c2cc(C(F)(F)F)cnc2OC)c(F)cc1-n1c2c(ccc1=O)CN(S(=O)(=O)Nc1ccon1)CC2` (racemic) [Example 23, (Rac)-1-(5-fluoro-2-methoxy-4-(2-methoxy-5-(trifluoromethyl)-3-pyridinyl)phenyl)-N-3-isoxazolyl-2-oxo-1,5,7,8-tetrahydro-1,6-naphthyridine-6(2H)-sulfonamide], the IC50 in assay [1] amounted to 7 nM; in assay [2] it was 25.4 nM; in assay [3], 6.8 nM.

Regarding `COc1cc(-c2cc(F)cc(F)c2)c(F)cc1-n1c2c(ccc1=O)[C@H](C)N(S(=O)(=O)Nc1ccon1)CC2` (single isomer, unassigned) [Example 3-B-P], the half-maximal inhibitory concentration (IC50) came out at 224 nM in assay [1], 2080 nM in assay [2] and 197 nM in assay [3].

`COc1cc(-c2cc(F)cc(F)c2)c(F)cc1-n1c2c(ccc1=O)CN(S(=O)(=O)Nc1ccon1)[C@H](C)C2` [Example 3-D-P, P-(7R)-N-3-isoxazolyl-7-methyl-2-oxo-1-(2,3′,5′-trifluoro-5-methoxy-4-biphenylyl)-1,5,7,8-tetrahydro-1,6-naphthyridine-6(2H)-sulfonamide]: the half-maximal inhibitory concentration (IC50) in assay [1] worked out at 40.5 nM; in assay [2] it was 230 nM; in assay [3] it was 40 nM.

With `COc1cc(-c2cc(F)cc(Cl)c2)c(F)cc1-n1c2c(ccc1=O)CN(S(=O)(=O)Nc1ncns1)CC2` (single isomer, unassigned) [Example 5-P, P-1-(3′-chloro-2,5′-difluoro-5-methoxy-4-biphenylyl)-2-oxo-N-1,2,4-thiadiazol-5-yl-1,5,7,8-tetrahydro-1,6-naphthyridine-6(2H)-sulfonamide], the half-inhibitory concentration (IC50) is 1.6 nM in assay [1], 12.3 nM in assay [2] and 1.5 nM in assay [3].

For `COc1cc(-c2cccc(OC(F)(F)F)c2)c(F)cc1-n1c2c(ccc1=O)CN(S(=O)(=O)Nc1cccnn1)CC2` [Example 66, P-1-(2-fluoro-5-methoxy-3′-(trifluoromethoxy)-[1,1′-biphenyl]-4-yl)-2-oxo-N-(pyridazin-3-yl)-1,2,7,8-tetrahydro-1,6-naphthyridine-6(5H)-sulfonamide], the figures for the IC50 in assay [1], in assay [2] and in assay [3] were 2.3 nM, 37.1 nM and 3.8 nM, respectively.

`COc1cc(-c2cc(F)cc(Cl)c2)c(F)cc1-n1c2c(ccc1=O)CN(S(=O)(=O)Nc1cccc(F)n1)CC2` (single isomer, unassigned) [Example 13-P, P-1-(3′-chloro-2,5′-difluoro-5-methoxy-4-biphenylyl)-N-(6-fluoro-2-pyridinyl)-2-oxo-1,5,7,8-tetrahydro-1,6-naphthyridine-6(2H)-sulfonamide]: the IC50 worked out at 28.4 nM in assay [1], 27.9 nM in assay [2] and 27.1 nM in assay [3].

For `COc1cc(-c2cc(F)cc(Cl)c2)c(F)cc1-n1c2c(ccc1=O)CN(S(=O)(=O)Nc1cccc(F)n1)CC2` (racemic) [Example 13-(Rac), (Rac)-1-(3′-chloro-2,5′-difluoro-5-methoxy-4-biphenylyl)-N-(6-fluoro-2-pyridinyl)-2-oxo-1,5,7,8-tetrahydro-1,6-naphthyridine-6(2H)-sulfonamide], the half-maximal inhibitory concentration (IC50) is 33.2 nM in assay [1], 123 nM in assay [2] and 27.6 nM in assay [3].

In the case of `COc1cc(-c2ccc(C)c(F)c2)c(F)cc1-n1c2c(ccc1=O)CN(S(=O)(=O)Nc1ccon1)CC2` (single isomer, unassigned) [Example 21-P, P-1-(2,3′-difluoro-5-methoxy-4′-methyl-4-biphenylyl)-N-3-isoxazolyl-2-oxo-1,5,7,8-tetrahydro-1,6-naphthyridine-6(2H)-sulfonamide], the IC50 in assay [1] was 7.7 nM; in assay [2] it was 24.3 nM; in assay [3], 9.5 nM.

On to `COc1cc(-c2cccc(C(F)(F)F)c2)c(Cl)cc1-n1c2c(ccc1=O)CN(S(=O)(=O)Nc1cccnn1)CC2` (single isomer, unassigned) [Example 91-P, P-1-(2-chloro-5-methoxy-3′-(trifluoromethyl)-[1,1′-biphenyl]-4-yl)-2-oxo-N-(pyridazin-3-yl)-1,2,7,8-tetrahydro-1,6-naphthyridine-6(5H)-sulfonamide], for which the IC50 in assay [1] was 3.4 nM; in assay [2] it was 16.9 nM; in assay [3], 3.5 nM.

For `COc1cc(-c2ccc(F)c(F)c2)c(F)cc1-n1c2c(ccc1=O)CN(S(=O)(=O)Nc1cccnn1)CC2` (racemic) [Example 32-(Rac), (Rac)-2-oxo-N-3-pyridazinyl-1-(2,3′,4′-trifluoro-5-methoxy-4-biphenylyl)-1,5,7,8-tetrahydro-1,6-naphthyridine-6(2H)-sulfonamide], the 50% inhibitory concentration (IC50) was 23.7 nM in assay [1], 161 nM in assay [2] and 30.5 nM in assay [3].

For the molecule `COc1cc(-c2cc(OC)c(-n3c4c(ccc3=O)CN(S(=O)(=O)Nc3ccon3)CC4)cc2F)ccc1C` (single isomer, unassigned) [Example 58-P, P-1-(2-fluoro-3′,5-dimethoxy-4′-methyl-4-biphenylyl)-N-3-isoxazolyl-2-oxo-1,5,7,8-tetrahydro-1,6-naphthyridine-6(2H)-sulfonamide], the IC50 in assay [1] turned out to be 19.4 nM; in assay [2], 107 nM; in assay [3], 9.2 nM.

`COc1cc(-c2ccc(F)c(F)c2)c(F)cc1-n1c2c(ccc1=O)CN(S(=O)(=O)Nc1ccon1)CC2` (single isomer, unassigned) [Example 20-P, P-N-3-isoxazolyl-2-oxo-1-(2,3′,4′-trifluoro-5-methoxy-4-biphenylyl)-1,5,7,8-tetrahydro-1,6-naphthyridine-6(2H)-sulfonamide]: the results for the IC50 in assay [1], in assay [2] and in assay [3] were 3.6 nM, 39.3 nM and 11.5 nM, respectively.

On to `COc1cc(-c2cccc(OC(F)F)c2)c(F)cc1-n1c2c(ccc1=O)CN(S(=O)(=O)Nc1ccon1)CC2` (racemic) [Example 19-(Rac), (Rac)-1-(3′-(difluoromethoxy)-2-fluoro-5-methoxy-4-biphenylyl)-N-3-isoxazolyl-2-oxo-1,5,7,8-tetrahydro-1,6-naphthyridine-6(2H)-sulfonamide], for which the results for the IC50 in assay [1], in assay [2] and in assay [3] were 5.5 nM, 117 nM and 15.6 nM, respectively.

As to `COc1cc(-c2cc(Cl)ccc2C)c(F)cc1-n1c2c(ccc1=O)CN(S(=O)(=O)Nc1ccon1)CC2` (racemic) [9-(Rac), (Rac)-1-(5′-chloro-2-fluoro-5-methoxy-2′-methyl-4-biphenylyl)-N-3-isoxazolyl-2-oxo-1,5,7,8-tetrahydro-1,6-naphthyridine-6(2H)-sulfonamide], the results for the IC50 in assay [1], in assay [2] and in assay [3] were 4.6 nM, 30.7 nM and 5.4 nM, respectively.

For the molecule `COc1cc(-c2ccc(Cl)c(C)c2)c(F)cc1-n1c2c(ccc1=O)CN(S(=O)(=O)Nc1ncccn1)CC2` (single isomer, unassigned) [Example 30-P, P-1-(4′-chloro-2-fluoro-5-methoxy-3′-methyl-4-biphenylyl)-2-oxo-N-2-pyrimidinyl-1,5,7,8-tetrahydro-1,6-naphthyridine-6(2H)-sulfonamide], the IC50 stood at 13.3 nM in assay [1], 197 nM in assay [2] and 37.5 nM in assay [3].

With `COc1cc(-c2ccc(F)c(C)c2)c(F)cc1-n1c2c(ccc1=O)CN(S(=O)(=O)Nc1ccon1)CC2` (single isomer, unassigned) [Example 22-P, P-1-(2,4′-difluoro-5-methoxy-3′-methyl-4-biphenylyl)-N-3-isoxazolyl-2-oxo-1,5,7,8-tetrahydro-1,6-naphthyridine-6(2H)-sulfonamide], the IC50 is 3.2 nM in assay [1], 106 nM in assay [2] and 8 nM in assay [3].

On to `COc1cc(-c2cc(F)cc(Cl)c2)c(F)cc1-n1c2c(ccc1=O)CN(S(=O)(=O)Nc1cccnn1)CC2` (racemic) [Example 38-(Rac), (Rac)-1-(3′-chloro-2,5′-difluoro-5-methoxy-4-biphenylyl)-2-oxo-N-3-pyridazinyl-1,5,7,8-tetrahydro-1,6-naphthyridine-6(2H)-sulfonamide], for which the IC50 in assay [1] was determined as 16.7 nM; in assay [2], 87.8 nM; in assay [3], 10.2 nM.

As for `COc1cc(-c2cc(F)cc(Cl)c2)c(F)cc1-n1c2c(ccc1=O)CN(S(=O)(=O)Nc1ccnc(C)n1)CC2` (single isomer, unassigned) [Example 6-P, P-1-(3′-chloro-2,5′-difluoro-5-methoxy-4-biphenylyl)-N-(2-methyl-4-pyrimidinyl)-2-oxo-1,5,7,8-tetrahydro-1,6-naphthyridine-6(2H)-sulfonamide], the IC50 in assay [1] stood at 25.4 nM; in assay [2], 269 nM; in assay [3], 64.8 nM.

As for `COc1cc(-c2cc(F)cc(Cl)c2)c(F)cc1-n1c2c(ccc1=O)CN(S(=O)(=O)Nc1ccc(F)cn1)CC2` (single isomer, unassigned) [Example 12-P, P-1-(3′-chloro-2,5′-difluoro-5-methoxy-4-biphenylyl)-N-(5-fluoro-2-pyridinyl)-2-oxo-1,5,7,8-tetrahydro-1,6-naphthyridine-6(2H)-sulfonamide], the concentration for half-maximal inhibition (IC50) in assay [1] was determined as 56.6 nM; in assay [2], 44.5 nM; in assay [3] it was 52.5 nM.
